B1: SHBG (protein, UniProt P04278 30-402, looked up)
Sex hormone-binding globulin: LRPVLPTQSAHDPPAVHLSNGPGQEPIAVMTFDLTKITKTSSSFEVRTWDPEGVIFYGDTNPKDDWFMLGLRDGRPEIQLHNHWAQLTVGAGPRLDDGRWHQVEVKMEGDSVLLEVDGEEVLRLRQVSGPLTSKRHPIMRIALGGLLFPASNLRLPLVPALDGCLRRDSWLDKQAEISASAPTSLRSCDVESNPGIFLPPGTQAEFNLRDIPQPHAEPWAFSLDLGLKQAAGSGHLLALGTPENPSWLSLHLQDQKVVLSSGSGPGLDLPLVLGLPLQLKLSMSRVVLSQGSKMKALALPPLGLAPLLNLWAKPQGRLFLGALPGEDSSTSFCLNGLWAQGQRLDVDQALNRSHEIWTHSCPQSPGNGTDASH

Assays:
[1] = General properties of testosterone: stability; type: physicochemical; conditions: in air
[2] = Baseline (24-hour pre-dose) and normal ranges of endogenous analytes (free/total testosterone, DHT, estradiol, SHBG); conditions: for Pooled Baseline Max / Pooled Baseline Min: baseline range observed, all cohorts pooled; for Pooled Baseline Max / Baseline Max, Dose Cohort 600 (μg) / Baseline Max, Dose Cohort 1200 (μg) / Baseline Max, Dose Cohort 1800 (μg): maximum; for Pooled Baseline Min / Baseline Min, Dose Cohort 600 (μg) / Baseline Min, Dose Cohort 1200 (μg) / Baseline Min, Dose Cohort 1800 (μg): minimum; for Baseline Max, Dose Cohort 600 (μg) / Baseline Min, Dose Cohort 600 (μg) / Baseline Max, Dose Cohort 1200 (μg) / Baseline Min, Dose Cohort 1200 (μg) / Baseline Max, Dose Cohort 1800 (μg) / Baseline Min, Dose Cohort 1800 (μg): baseline range; for Baseline Max, Dose Cohort 600 (μg) / Baseline Min, Dose Cohort 600 (μg): 600 μg dose cohort; for Baseline Max, Dose Cohort 1200 (μg) / Baseline Min, Dose Cohort 1200 (μg): 1200 μg dose cohort; for Baseline Max, Dose Cohort 1800 (μg) / Baseline Min, Dose Cohort 1800 (μg): 1800 μg dose cohort
[3] = reported normal range, cited from earlier work; for Normal Range Max: maximum; for Normal Range Min: minimum

| Molecule | Stability [1] | Pooled Baseline Max [2] | Pooled Baseline Min [2] | Baseline Max, Dose Cohort 600 (μg) [2] | Baseline Min, Dose Cohort 600 (μg) [2] | Baseline Max, Dose Cohort 1200 (μg) [2] | Baseline Min, Dose Cohort 1200 (μg) [2] | Baseline Max, Dose Cohort 1800 (μg) [2] | Baseline Min, Dose Cohort 1800 (μg) [2] | Normal Range Max [3] | Normal Range Min [3] |
| --- | --- | --- | --- | --- | --- | --- | --- | --- | --- | --- | --- |
| C[C@]12CC[C@H]3[C@@H](CCC4=CC(=O)CC[C@@]43C)[C@@H]1CC[C@@H]2O [Testosterone, 17β-Hydroxyandrost-4-en-3-one] | powder. It is odourless, and stable in air. |  |  |  |  |  |  |  |  |  |  |
| C[C@]12CC[C@@H]3c4ccc(O)cc4CC[C@H]3[C@@H]1CC[C@@H]2O [Estradiol] |  | 122.00 pg/mL | 17.00 pg/mL | 122.00 pg/mL | 20.90 pg/mL | 119.00 pg/mL | 17.00 pg/mL | 97.40 pg/mL | 17.70 pg/mL |  |  |
| C[C@]12CCC(=O)C[C@@H]1CC[C@@H]1[C@@H]2CC[C@]2(C)[C@@H](O)CC[C@@H]12 [Dihydrotestosterone] |  | 326 pg/mL | 50.2 pg/mL | 221 pg/mL | 52.9 pg/mL | 253 pg/mL | 50.4 pg/mL | 326 pg/mL | 50.2 pg/mL | 22.00 ng/dL | 4.00 ng/dL |
| B1 |  | 137.00 nmol/L | 15.30 nmol/L | 102.00 nmol/L | 15.30 nmol/L | 86.70 nmol/L | 16.00 nmol/L | 137.00 nmol/L | 25.20 nmol/L | 114.00 nmol/L | 18.00 nmol/L |
